Assay results: PubChem BioAssay AID1259411 (Chemical Carcinogenesis Research Information System (CCRIS), 2018)
Activity calls are given as the source filed them. No rule for the calls is given here.

Tested on: rodent carcinogenicity bioassays, tumor incidence
Experiment: CCRIS carcinogenicity studies
In short: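 Archive of carcinogenicity, mutagenicity, tumor promotion and tumor inhibition results drawn from journals, NCI reports and other sources, expert-reviewed; covers 1985-2011 and is no longer updated.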

O=[N+]([O-])c1c(Cl)c(Cl)c(Cl)c(Cl)c1Cl
carcinogen call (Species: MOUSE, Route: DERMAL, Tumor Site: Type of Lesion: INTEGUMENTARY SYSTEM (SKIN)): active; positive | carcinogen call (Species: MOUSE, Route: ORAL, Tumor Site: Type of Lesion: LIVER): active; positive | carcinogen call (Species: MOUSE, Strain/Sex: B6C3F1/FEMALE, Route: ORAL, Dose: 0, 4093, 8187 PPM IN DIET, TWA, Dose: 0, 4093, 8187 PPM IN DIET, TWA): inactive; negative | carcinogen call (Species: MOUSE, Strain/Sex: B6C3F1/MALE, Route: ORAL, Dose: 0, 2500, 5000 PPM IN DIET FOR 103 WK (STUDY DURATION = 104 WK), Dose: 0, 2500, 5000 PPM IN DIET FOR 103 WK (STUDY DURATION = 104 WK)): inactive; negative | carcinogen call (Species: MOUSE, Strain/Sex: B6C3F1/MALE, Route: ORAL, Dose: 0, 2606, 5213 PPM IN DIET, TWA, Dose: 0, 2606, 5213 PPM IN DIET, TWA): inactive; negative | carcinogen call (Species: RAT, Strain/Sex: OSBORNE-MENDEL/FEMALE, Route: ORAL, Dose: 0, 7875, 14635 PPM IN DIET, TWA, Dose: 0, 7875, 14635 PPM IN DIET, TWA): inactive; negative | carcinogen call (Species: RAT, Strain/Sex: OSBORNE-MENDEL/MALE, Route: ORAL, Dose: 0, 5417, 10064 PPM IN DIET, TWA, Dose: 0, 5417, 10064 PPM IN DIET, TWA): inactive; negative

CC(C)CBr
carcinogen call (Species: MOUSE, Route: INTRAPERITONEAL, Tumor Site: Type of Lesion: LUNG): active; positive

CCCCCCCCN(C)N=O
carcinogen call (Species: HAMSTER, Strain/Sex: SYRIAN/FEMALE, Route: GAVAGE, Dose: 0, 7.4 MG/KG 1/WK FOR 40 WK (TOTAL DOSE: 0; 2.1 MMOL) (STUDY DURATION: LIFETIME), Dose: 0, 7.4 MG/KG 1/WK FOR 40 WK (TOTAL DOSE: 0; 2.1 MMOL) (STUDY DURATION: LIFETIME), Tumor Site: Type of Lesion: LIVER: HEPATOCELLULAR ADENOMA, LUNG: ALVEOLAR/BRONCHIAL ADENOMA, NASAL MUCOSA: ADENOMA, URINARY BLADDER: SARCOMA, UNDIFF, Tumor Site: Type of Lesion: LIVER: HEPATOCELLULAR ADENOMA, LUNG: ALVEOLAR/BRONCHIAL ADENOMA, NASAL MUCOSA: ADENOMA, URINARY BLADDER: SARCOMA, UNDIFF): active; positive | carcinogen call (Species: HAMSTER, Strain/Sex: SYRIAN/MALE, Route: GAVAGE, Dose: 0, 7.4 MG/KG 1/WK FOR 40 WK (TOTAL DOSE: 0; 2.1 MMOL) (STUDY DURATION: LIFETIME), Dose: 0, 7.4 MG/KG 1/WK FOR 40 WK (TOTAL DOSE: 0; 2.1 MMOL) (STUDY DURATION: LIFETIME), Tumor Site: Type of Lesion: LIVER: HEPATOCELLULAR ADENOMA, CHOLANGIOMA, HEMANGIOSARCOMA, LUNG: ALVEOLAR/ BRONCHIAL ADENOMA, NASAL MUCOSA: ADENOMA, U, Tumor Site: Type of Lesion: LIVER: HEPATOCELLULAR ADENOMA, CHOLANGIOMA, HEMANGIOSARCOMA, LUNG: ALVEOLAR/ BRONCHIAL ADENOMA, NASAL MUCOSA: ADENOMA, U): active; positive | carcinogen call (Species: RAT, Strain/Sex: F344/MALE, Route: GAVAGE, Dose: 0, 93 MG/ML IN CORN OIL 2/WK FOR 30 WK, STUDY DURATION: 50 WK, Dose: 0, 93 MG/ML IN CORN OIL 2/WK FOR 30 WK, STUDY DURATION: 50 WK, Tumor Site: Type of Lesion: LUNG: ADENOCARCINOMA, ADENOMA, NASAL CAVITY: CARCINOMA, LIVER: HEPATOCELLULAR TUMOR, BLADDER, Tumor Site: Type of Lesion: LUNG: ADENOCARCINOMA, ADENOMA, NASAL CAVITY: CARCINOMA, LIVER: HEPATOCELLULAR TUMOR, BLADDER): active; positive

CCC[CH2][Sn]([CH2]CCC)([CH2]CCC)[O][Sn]([CH2]CCC)([CH2]CCC)[CH2]CCC
carcinogen call (Species: RAT, Strain/Sex: WISTAR/FEMALE, Route: ORAL, Dose: 0, 0.5, 5, 50 MG/KG DIET FOR 30 MO (STUDY DURATION: 30 MO), Dose: 0, 0.5, 5, 50 MG/KG DIET FOR 30 MO (STUDY DURATION: 30 MO), Tumor Site: Type of Lesion: ADRENAL GLAND: PHEOCHROMOCYTOMA, PITUITARY: TUMOR): active; positive | carcinogen call (Species: RAT, Strain/Sex: WISTAR/MALE, Route: ORAL, Dose: 0, 0.5, 5, 50 MG/KG DIET FOR 30 MO (STUDY DURATION: 30 MO), Dose: 0, 0.5, 5, 50 MG/KG DIET FOR 30 MO (STUDY DURATION: 30 MO), Tumor Site: Type of Lesion: ADRENAL GLAND: PHEOCHROMOCYTOMA, PITUITARY: TUMOR, PARATHYROID: ADENOMA, Tumor Site: Type of Lesion: ADRENAL GLAND: PHEOCHROMOCYTOMA, PITUITARY: TUMOR, PARATHYROID: ADENOMA): active; positive

O[C@H]1C=Cc2cc3ccc4ccccc4c3nc2[C@@H]1O
carcinogen call (Species: MOUSE, Strain/Sex: SWISS/FEMALE, Route: INTRAPERITONEAL, Dose: 0, 1.05 UMOL GIVEN AS 150 NMOL IN 5 µL DMSO WITHIN 24 HR OF BIRTH, 300 NMOL IN 10 µL DMSO ON D 8 OF LIFE, AND 600 NMOL I, Tumor Site: Type of Lesion: LUNG: ADENOMA): active; positive | carcinogen call (Species: MOUSE, Strain/Sex: SWISS/MALE, Route: INTRAPERITONEAL, Dose: 0, 1.05 UMOL GIVEN AS 150 NMOL IN 5 µL DMSO WITHIN 24 HR OF BIRTH, 300 NMOL IN 10 µL DMSO ON D 8 OF LIFE, AND 600 NMOL I, Tumor Site: Type of Lesion: LUNG: ADENOMA, LIVER: NEOPLASTIC NODULE): active; positive

O=P(OCC(Br)CBr)(OCC(Br)CBr)OCC(Br)CBr (stereo not drawn)
carcinogen call (Species: MOUSE, Strain/Sex: B6C3F1/FEMALE, Route: ORAL, Dose: 0, 500, 1000 PPM IN DIET, Dose: 0, 500, 1000 PPM IN DIET, Tumor Site: Type of Lesion: STOMACH: SQUAMOUS CELL PAPILLOMA OR CARCINOMA, LUNG: ALVEOLAR/BRONCHIOLAR ADENOMA OR CARCINOMA, LIVER: HEPATOCELLULAR AD, Tumor Site: Type of Lesion: STOMACH: SQUAMOUS CELL PAPILLOMA OR CARCINOMA, LUNG: ALVEOLAR/BRONCHIOLAR ADENOMA OR CARCINOMA, LIVER: HEPATOCELLULAR AD): active; positive | carcinogen call (Species: MOUSE, Strain/Sex: B6C3F1/MALE, Route: ORAL, Dose: 0, 500, 1000 PPM IN DIET, Dose: 0, 500, 1000 PPM IN DIET, Tumor Site: Type of Lesion: STOMACH: SQUAMOUS CELL PAPILLOMA OR CARCINOMA, LUNG: ALVEOLAR/BRONCHIOLAR ADENOMA OR CARCINOMA): active; positive | carcinogen call (Species: RAT, Strain/Sex: F344/FEMALE, Route: ORAL, Dose: 0, 50, 100 PPM IN DIET, Dose: 0, 50, 100 PPM IN DIET, Tumor Site: Type of Lesion: KIDNEY: TUBULAR CELL ADENOMA): active; positive | carcinogen call (Species: RAT, Strain/Sex: F344/MALE, Route: ORAL, Dose: 0, 50, 100 PPM IN DIET, Dose: 0, 50, 100 PPM IN DIET, Tumor Site: Type of Lesion: KIDNEY: TUBULAR CELL ADENOMA OR ADENOCARCINOMA): active; positive

CCCCOC(=O)[C@@H](C)Oc1ccc(Oc2ccc(C(F)(F)F)cn2)cc1
carcinogen call (Species: Hamster, Strain/Sex: Syrian golden/Female (51/Group), Route: Oral, Dose: 0, 200, 750, 3000 ppm of 91.6% fluazifop-o-butyl (0; 10.6; 40; 158 mg/kg/day) in diet for 81-83 wks, study duration 83 w, Dose: 0, 200, 750, 3000 ppm of 91.6% fluazifop-o-butyl (0; 10.6; 40; 158 mg/kg/day) in diet for 81-83 wks, study duration 83 w): inactive; negative | carcinogen call (Species: Hamster, Strain/Sex: Syrian golden/Male (51/Group), Route: Oral, Dose: 0, 200, 750, 3000 ppm of 91.6% fluazifop-o-butyl (0; 11.1; 42; 174 mg/kg/day) in diet for 81-83 wks, study duration 83 w, Dose: 0, 200, 750, 3000 ppm of 91.6% fluazifop-o-butyl (0; 11.1; 42; 174 mg/kg/day) in diet for 81-83 wks, study duration 83 w): inactive; negative | carcinogen call (Species: Rat, Strain/Sex: Wistar/Female (60/Group), Route: Oral, Dose: 0, 2, 10, 80, 250 ppm of 94.8% fluazifop-o-butyl (0; 0.11; 0.53; 4.3; 13.4 mg/kg/day) in diet for 2 yrs, study duration, Dose: 0, 2, 10, 80, 250 ppm of 94.8% fluazifop-o-butyl (0; 0.11; 0.53; 4.3; 13.4 mg/kg/day) in diet for 2 yrs, study duration): inactive; negative | carcinogen call (Species: Rat, Strain/Sex: Wistar/Male (60/Group), Route: Oral, Dose: 0, 2, 10, 80, 250 ppm of 94.8% fluazifop-o-butyl (0; 0.08; 0.41; 3.3; 10.2 mg/kg/day) in diet for 2 yrs, study duration, Dose: 0, 2, 10, 80, 250 ppm of 94.8% fluazifop-o-butyl (0; 0.08; 0.41; 3.3; 10.2 mg/kg/day) in diet for 2 yrs, study duration): inactive; negative
